Results published in ChEMBL document CHEMBL3997780, “Facile synthesis and antiproliferative activity of 7H-benzo[7,8]chromeno[2,3-d]pyrimidin-8-amines” (Eur J Med Chem, 2017).
Active and inactive are the calls of the source. The calls are words filed in the database; no cut-off is given here.

Tests used:
A549 [1] = experiment: Cytotoxicity against human A549 cells assessed as decrease in cell viability by MTT assay; format: functional, cell-based
MOLT-4 [2] = experiment: Cytotoxicity against human MOLT4 cells assessed as decrease in cell viability by MTT assay; format: functional, cell-based
HeLa = experiment: Cytotoxicity against human HeLa cells assessed as decrease in cell viability by MTT assay; format: functional, cell-based
A549 [3] = experiment: Induction of apoptosis in human A549 cells assessed as change in cell morphology at IC50 after 24 hrs by acridine orange/ethidium bromide staining-based fluorescence microscopic method; format: functional
MOLT-4 [4] = experiment: Induction of apoptosis in human MOLT4 cells assessed as change in cell morphology at IC50 after 24 hrs by acridine orange/ethidium bromide staining-based fluorescence microscopic method; format: functional
A549 [5] = experiment: Induction of apoptosis in human A549 cells assessed as early apoptotic cells at IC50 after 24 hrs by annexin V-FITC/propidium iodide staining-based flow cytometric method (reference value: 0.93%); format: functional
A549 [6] = experiment: Induction of apoptosis in human A549 cells assessed as late apoptotic cells at IC50 after 24 hrs by annexin V-FITC/propidium iodide staining-based flow cytometric method (reference value: 0.06%); format: functional
A549 [7] = experiment: Induction of apoptosis in human A549 cells assessed as necrotic cells at IC50 after 24 hrs by annexin V-FITC/propidium iodide staining-based flow cytometric method relative to control; format: functional
A549 [8] = experiment: Induction of apoptosis in human A549 cells assessed as viable cells at IC50 after 24 hrs by annexin V-FITC/propidium iodide staining-based flow cytometric method (reference value: 99.01%); format: functional
MOLT-4 [9] = experiment: Induction of apoptosis in human MOLT4 cells assessed as early apoptotic cells at IC50 after 24 hrs by annexin V-FITC/propidium iodide staining-based flow cytometric method (reference value: 2.18%); format: functional
MOLT-4 [10] = experiment: Induction of apoptosis in human MOLT4 cells assessed as late apoptotic cells at IC50 after 24 hrs by annexin V-FITC/propidium iodide staining-based flow cytometric method (reference value: 0.02%); format: functional
MOLT-4 [11] = experiment: Induction of apoptosis in human MOLT4 cells assessed as necrotic cells at IC50 after 24 hrs by annexin V-FITC/propidium iodide staining-based flow cytometric method (reference value: 0.03%); format: functional
MOLT-4 [12] = experiment: Induction of apoptosis in human MOLT4 cells assessed as viable cells at IC50 after 24 hrs by annexin V-FITC/propidium iodide staining-based flow cytometric method (reference value: 97.78%); format: functional

## Brc1ccc(Nc2ncnc3c2C(c2ccccc2)c2ccc4ccccc4c2O3)cc1 (configuration not stated)
A549 [1]
  IC50: > 100 µM
MOLT-4 [2]
  IC50: 29.4 µM
HeLa
  IC50: 31.6 µM

## c1ccc(Nc2ncnc3c2C(c2ccccc2)c2ccc4ccccc4c2O3)cc1 (configuration not stated)
A549 [1]
  IC50: 12.5 µM
MOLT-4 [2]
  IC50: 6.6 µM
HeLa
  IC50: 6.4 µM

## COc1ccc(CCNc2ncnc3c2C(c2ccccc2)c2ccc4ccccc4c2O3)c(OC)c1 (configuration not stated)
A549 [1]
  IC50: 18.9 µM
MOLT-4 [2]
  IC50: 14.5 µM
HeLa
  IC50: 43.5 µM

## COc1ccc(OC)c(C2c3ccc4ccccc4c3Oc3ncnc(Nc4ccc(Cl)cc4)c32)c1 (configuration not stated)
A549 [1]
  IC50: 14.8 µM
MOLT-4 [2]
  IC50: 7.4 µM
HeLa
  IC50: 15.9 µM

## Fc1ccccc1Nc1ncnc2c1C(c1ccccc1)c1ccc3ccccc3c1O2 (configuration not stated)
A549 [1]
  IC50: 5.4 µM
MOLT-4 [2]
  IC50: 12.8 µM
HeLa
  IC50: 10.3 µM
A549 [3]
  Activity: Active
MOLT-4 [4]
  Activity: Active
A549 [5]
  Activity: 34.92%
A549 [6]
  Activity: 2.72%
A549 [7]
  Activity: 0.29%
A549 [8]
  Activity: 62.07%

## COc1ccc(Nc2ncnc3c2C(c2cc(OC)ccc2OC)c2ccc4ccccc4c2O3)cc1 (configuration not stated)
A549 [1]
  IC50: 7.2 µM
MOLT-4 [2]
  IC50: 6.9 µM
HeLa
  IC50: 10.6 µM

## COc1cc(C2c3ccc4ccccc4c3Oc3ncnc(NCc4ccccc4Cl)c32)cc(OC)c1OC (configuration not stated)
A549 [1]
  IC50: 22.2 µM
MOLT-4 [2]
  IC50: 14.5 µM
HeLa
  IC50: 33.2 µM

## Clc1ccc(Nc2ncnc3c2C(c2ccccc2)c2ccc4ccccc4c2O3)cc1 (configuration not stated)
A549 [1]
  IC50: 13.7 µM
MOLT-4 [2]
  IC50: 16.4 µM
HeLa
  IC50: 19.9 µM

## c1ccc(CCNc2ncnc3c2C(c2ccccc2)c2ccc4ccccc4c2O3)cc1 (configuration not stated)
A549 [1]
  IC50: 68.5 µM
MOLT-4 [2]
  IC50: 16.9 µM
HeLa
  IC50: 50.2 µM

## COc1cc(C2c3ccc4ccccc4c3Oc3ncnc(Nc4ccccc4)c32)cc(OC)c1OC (configuration not stated)
A549 [1]
  IC50: 18.6 µM
MOLT-4 [2]
  IC50: 9.8 µM
HeLa
  IC50: 20.7 µM

## COc1ccc(Nc2ncnc3c2C(c2cc(OC)c(OC)c(OC)c2)c2ccc4ccccc4c2O3)cc1 (configuration not stated)
A549 [1]
  IC50: 46.5 µM
MOLT-4 [2]
  IC50: 33.5 µM
HeLa
  IC50: > 100 µM

## COc1cc(C2c3ccc4ccccc4c3Oc3ncnc(NCc4ccccc4)c32)cc(OC)c1OC (configuration not stated)
A549 [1]
  IC50: 26.5 µM
MOLT-4 [2]
  IC50: 10.4 µM
HeLa
  IC50: 44.6 µM

## Cc1ccc(Nc2ncnc3c2C(c2ccccc2)c2ccc4ccccc4c2O3)c(C)c1 (configuration not stated)
A549 [1]
  IC50: 11.2 µM
MOLT-4 [2]
  IC50: 8.9 µM
HeLa
  IC50: 14.6 µM

## CCc1ccc(Nc2ncnc3c2C(c2ccccc2)c2ccc4ccccc4c2O3)cc1 (configuration not stated)
A549 [1]
  IC50: 17.4 µM
MOLT-4 [2]
  IC50: 17.6 µM
HeLa
  IC50: 14.5 µM

## COc1ccc(OC)c(C2c3ccc4ccccc4c3Oc3ncnc(Nc4ccc(Br)cc4)c32)c1 (configuration not stated)
A549 [1]
  IC50: 26.8 µM
MOLT-4 [2]
  IC50: 20.4 µM
HeLa
  IC50: 16.7 µM

## Clc1ccccc1CNc1ncnc2c1C(c1ccccc1)c1ccc3ccccc3c1O2 (configuration not stated)
A549 [1]
  IC50: 9.6 µM
MOLT-4 [2]
  IC50: 11.7 µM
HeLa
  IC50: 15.4 µM

## c1ccc(CNc2ncnc3c2C(c2ccccc2)c2ccc4ccccc4c2O3)cc1 (configuration not stated)
A549 [1]
  IC50: 10.9 µM
MOLT-4 [2]
  IC50: 12.7 µM
HeLa
  IC50: 5.9 µM

## COc1ccc(Nc2ncnc3c2C(c2ccccc2)c2ccc4ccccc4c2O3)c(OC)c1 (configuration not stated)
A549 [1]
  IC50: 10.9 µM
MOLT-4 [2]
  IC50: 6.5 µM
HeLa
  IC50: 15.9 µM

## COc1ccc(OC)c(C2c3ccc4ccccc4c3Oc3ncnc(Nc4ccccc4F)c32)c1 (configuration not stated)
A549 [1]
  IC50: 6.3 µM
MOLT-4 [2]
  IC50: 5.2 µM
HeLa
  IC50: 6.9 µM
A549 [3]
  Activity: Active
MOLT-4 [4]
  Activity: Active
MOLT-4 [9]
  Activity: 47.03%
MOLT-4 [10]
  Activity: 43.61%
MOLT-4 [11]
  Activity: 1.18%
MOLT-4 [12]
  Activity: 8.18%

## COc1ccc(OC)c(C2c3ccc4ccccc4c3Oc3ncnc(Nc4ccc(F)cc4)c32)c1 (configuration not stated)
A549 [1]
  IC50: 8.4 µM
MOLT-4 [2]
  IC50: 6.8 µM
HeLa
  IC50: 10.5 µM
